From patent publication US12455279B2, “Personalized immunotherapy for rejuvenating activating and strengthening exhausted and dysfunctional T cells, reducing PD-1, and improving immune function” (priority 2018, dated 2025)

Assays:
Assay type in all cases: cell-based
[1] = test system: PD-1 expressing CD3+ normal human T cells; assay: PD-1 surface expression on CD3+ T cells of healthy donors after treatment (1, 18, 24 Hr); details: for % reduction in % of T cells expressing PD-1: vs untreated
Protocol: (§1) Peripheral blood lymphocytes (PBLs) were separated from normal human leukocytes of healthy donors by Ficol separation and CD3 positive T cells were separated by anti-CD3 antibody-coupled magnetic beads. The CD3+ T cells were cultured in RPMI 1640 medium supplemented with 10% heat inactivated fetal calf serum (FCS), 1% L-Glutamine, 1% sodium pyruvate, 1% non-essential amino acids, and 1% antibiotics. The cells were usually maintained for, for on average 24 hours after their separation before various molecules were added and their effects on the T cells were measured. […] It was therefore tested if neurotransmitters, neuropeptides, and/or modulators of voltage-gated ion channels can reduce PD-1 on the cell surface of T cells. Such a reduction would allow the T cells to escape the tumor-induced T cell suppression, and the activated T cells could then attach the cancer cells. As such, the expression of PD-1 on the surface of these treated and untreated T cells was monitored. […] Shorter in vitro incubation times are frequently preferable when cells are going to subsequently be returned to a subject, as they end to decrease the risk of an adverse reaction.

[2] = test system: PD-1 expressing smaller non-proliferating CD3+ normal human T cells; assay: PD-1 expression on smaller non-proliferating T cells (FSC/SSC gating), 1 Hr treatment; details: for % reduction in % of smaller T cells expressing PD-1: vs untreated
Protocol: as §1
(§2) CD3 positive T cells of patients are a heterogenous mix of different types of T cells. […] Using this FCS and SSC analysis, T cells can be distinguished and separated by size into large proliferating T cells and smaller non-proliferating T cells.

[3] = test system: PD-1 expressing large proliferating CD3+ normal human T cells; assay: PD-1 expression on large proliferating T cells (FSC/SSC gating), 1 Hr treatment; details: for % reduction in % of large T cells expressing PD-1: vs untreated
Protocol: as §1, §2

Row | Molecule | % of T cells expressing PD-1 ([1]; 1 Hr treatment, 10^−8M) [%] | % reduction in % of T cells expressing PD-1 ([1]; 1 Hr treatment, 10^−8M) [%] | % of T cells expressing PD-1 ([1]; 24 Hr treatment, 10^−7M) [%] | % reduction in % of T cells expressing PD-1 ([1]; 24 Hr treatment, 10^−7M) [%] | % of T cells expressing PD-1 ([1]; 24 Hr treatment, 10^−8M) [%] | % reduction in % of T cells expressing PD-1 ([1]; 24 Hr treatment, 10^−8M) [%] | % of T cells expressing PD-1 ([1]; 18 Hr treatment, 10^−7M) [%] | % reduction in % of T cells expressing PD-1 ([1]; 18 Hr treatment, 10^−7M) [%] | % of smaller T cells expressing PD-1 ([2]; concentration not given) [%] | % reduction in % of smaller T cells expressing PD-1 ([2]; concentration not given) [%] | % of large T cells expressing PD-1 ([3]; concentration not given) [%] | % reduction in % of large T cells expressing PD-1 ([3]; concentration not given) [%] | other results
1 | CCCN(CCC)C1CCc2ccc(O)cc2C1 (centres unmarked) [7-OH-DPAT] | 21.65 | 42 | 5.12 | 75.85 | 13.6 | 35.85 |  |  |  |  |  |  | 
2 | NC[C@@H]1O[C@H](C23CC4CC(CC(C4)C2)C3)Cc2c1ccc(O)c2O [A77636] | 27.25 | 25 | 12.7 | 37.84 | 14.7 | 28.05 | 27.10 | 21.90 |  |  |  |  | % of smaller T cells expressing PD-1 ([2]; 10−8M): 40.8%; % reduction in % of smaller T cells expressing PD-1 ([2]; 10−8M): 7.1%; % of large T cells expressing PD-1 ([3]; 10^−8M): 20.5%; % reduction in % of large T cells expressing PD-1 ([3]; 10^−8M): 4.7%
3 | Cc1cccc(NC(=O)CN2CCC(c3ccccn3)CC2)c1 [A412997] | 17.4 | 52 |  |  |  |  |  |  |  |  |  |  | 
4 | Cc1onc(O)c1CC(N)C(=O)O (centres unmarked) [AMPA, alph-amino-3-hydroxy-5-methyl-4-isoxazalepropinoic acid] | 26.4 | 28 |  |  |  |  | 28.55 | 17.72 |  |  |  |  | 
5 | N#Cc1cc2[nH]c(=O)c(=O)[nH]c2cc1[N+](=O)[O-] [CNQX] |  |  |  |  |  |  |  |  |  |  |  |  | % of T cells expressing PD-1 ([1]; 24 Hr treatment, 0.5*10^-6M): 13.7%; % reduction in % of T cells expressing PD-1 ([1]; 24 Hr treatment, 0.5*10^-6M): 32.93%; % of T cells expressing PD-1 ([1]; 24 Hr treatment, 0.5*10^−5M): 12.9%; % reduction in % of T cells expressing PD-1 ([1]; 24 Hr treatment, 0.5*10^−5M): 36.84%
6 | Oc1ccc(C2CNCCc3c2cc(O)c(O)c3Cl)cc1 (centres unmarked) [Fenoldopam (powder), Fenoldopam] |  |  | 21.3 | −4.26 | 14.7 | 28.05 | 25.75 | 25.79 |  |  |  |  | effect on PD-1 expressing T cells ([1]; incubated for 24 hours): did not have a positive effect
7 | Oc1ccc(C2CNCCc3c2cc(O)c(O)c3Cl)cc1 (centres unmarked) [Fenoldopam - Corlopam, Fenoldopam] |  |  |  |  |  |  | 27.87 | 19.74 |  |  |  |  | 
8 | OC1(c2ccc(Cl)cc2)CCN(Cc2c[nH]c3ccccc23)CC1 [L-741,626] |  |  |  |  |  |  |  |  | 38.6 | 12.1 | 19.0 | 11.6 | 
9 | Cc1c(C2CCN(CCc3ccccc3)CC2)noc1-c1ccc(Cl)cc1 [L-741,742] |  |  |  |  |  |  |  |  | 37.8 | 13.9 | 19.3 | 10.2 | 
10 | O=C(NCCCCN1CCN(c2cccc(Cl)c2Cl)CC1)c1ccc2c(c1)Cc1ccccc1-2 [NGB 2904] |  |  |  |  |  |  |  |  | 40.2 | 8.4 | 22.5 | −4.7 | 
11 | CN[C@H](CC(=O)O)C(=O)O [NMDA, N-methyl-D-aspartic acid] | 30.35 | 17 |  |  |  |  | 24.75 | 28.67 |  |  |  |  | 
12 | CN1CCc2cc(Cl)c(O)cc2[C@H]2c3ccccc3CC[C@@H]21 [SCH 39166] |  |  |  |  |  |  |  |  | 40.1 | 8.7 | 19.8 | 7.9 | 
13 | Dendrotoxin K | 34.6 | 25 | 16.2 | 20.69 | 16.2 | 20.69 | 23.30 | 32.85 |  |  |  |  | 
